Data from ChEMBL document CHEMBL1152560, “Substituted 2-arylbenzothiazoles as kinase inhibitors: hit-to-lead optimization” (Bioorg Med Chem, 2009).

Experiments:
[1] = biological target: G protein-coupled receptor kinase 5 (Homo sapiens) (UniProt P34947); experiment: Residual activity of GRK5 at 10 uM by microplate scintillation counting
[2] = biological target: Myosin light chain kinase 2, skeletal/cardiac muscle (Homo sapiens) (UniProt Q9H1R3); experiment: Residual activity of MYLK2 at 1 uM by microplate scintillation counting
[3] = biological target: Mitogen-activated protein kinase 14 (Homo sapiens) (UniProt Q16539); experiment: Residual activity of p38alpha at 10 uM by microplate scintillation counting
[4] = biological target: T1, Tyrosine-protein kinase receptor TYRO3 (Homo sapiens) (UniProt Q06418); experiment: Residual activity of TYRO3 at 10 uM by microplate scintillation counting
T1 sequence (whole entry): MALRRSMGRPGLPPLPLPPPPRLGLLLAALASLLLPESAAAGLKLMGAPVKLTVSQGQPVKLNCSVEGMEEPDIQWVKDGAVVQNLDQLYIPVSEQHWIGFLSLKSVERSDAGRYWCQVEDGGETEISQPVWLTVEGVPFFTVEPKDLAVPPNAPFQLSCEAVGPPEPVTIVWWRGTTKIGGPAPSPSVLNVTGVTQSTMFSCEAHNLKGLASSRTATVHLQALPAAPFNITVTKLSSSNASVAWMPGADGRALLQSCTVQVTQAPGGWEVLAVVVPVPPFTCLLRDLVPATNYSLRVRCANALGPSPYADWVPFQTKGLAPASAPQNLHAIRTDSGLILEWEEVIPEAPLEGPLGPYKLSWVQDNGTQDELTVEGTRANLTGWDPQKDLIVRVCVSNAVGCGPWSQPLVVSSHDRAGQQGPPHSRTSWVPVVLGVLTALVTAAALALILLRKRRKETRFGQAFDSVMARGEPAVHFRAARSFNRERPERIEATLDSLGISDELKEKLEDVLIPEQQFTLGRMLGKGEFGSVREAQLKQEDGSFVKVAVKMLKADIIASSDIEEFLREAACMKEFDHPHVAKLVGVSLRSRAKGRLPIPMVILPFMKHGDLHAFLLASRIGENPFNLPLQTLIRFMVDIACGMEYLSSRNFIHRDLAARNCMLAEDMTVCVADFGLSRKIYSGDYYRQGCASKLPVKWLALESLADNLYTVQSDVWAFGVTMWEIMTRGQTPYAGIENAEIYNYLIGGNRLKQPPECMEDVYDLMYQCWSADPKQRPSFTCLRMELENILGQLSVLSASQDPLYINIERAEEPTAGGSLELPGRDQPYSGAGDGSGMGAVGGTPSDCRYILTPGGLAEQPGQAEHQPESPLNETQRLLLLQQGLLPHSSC

[5] = system: Epidermal growth factor receptor (Homo sapiens), P00533 [L858R]; experiment: Residual activity of EGFR L858R mutant at 1 uM by microplate scintillation counting
[6] = biological target: Protein kinase C beta type (Homo sapiens) (UniProt P05771); experiment: Residual activity of PKCbeta1 at 0.1 uM by microplate scintillation counting
[7] = biological target: Serine/threonine-protein kinase PAK 1 (Homo sapiens) (UniProt Q13153); experiment: Residual activity of PAK1 at 0.1 uM by microplate scintillation counting
[8] = biological target: Serine/threonine-protein kinase 24 (Homo sapiens) (UniProt Q9Y6E0); experiment: Residual activity of MST3 at 1 uM by microplate scintillation counting
[9] = biological target: T2, Serine/threonine-protein kinase Nek2 (Homo sapiens) (UniProt P51955); experiment: Residual activity of NEK2 at 0.1 uM by microplate scintillation counting
T2 sequence (whole entry): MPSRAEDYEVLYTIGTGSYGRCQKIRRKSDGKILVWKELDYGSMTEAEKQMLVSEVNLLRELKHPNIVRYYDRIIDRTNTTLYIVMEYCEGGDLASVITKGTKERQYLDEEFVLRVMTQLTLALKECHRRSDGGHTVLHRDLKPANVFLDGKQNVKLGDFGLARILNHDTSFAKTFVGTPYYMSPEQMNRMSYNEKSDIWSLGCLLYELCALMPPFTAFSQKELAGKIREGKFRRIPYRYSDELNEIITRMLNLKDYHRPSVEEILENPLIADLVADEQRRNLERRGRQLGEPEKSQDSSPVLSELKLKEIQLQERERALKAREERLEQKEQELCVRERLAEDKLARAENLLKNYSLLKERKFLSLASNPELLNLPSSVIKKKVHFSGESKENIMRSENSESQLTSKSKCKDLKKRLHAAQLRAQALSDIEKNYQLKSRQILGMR

[10] = biological target: T3, Tyrosine-protein kinase ITK/TSK (Homo sapiens) (UniProt Q08881); experiment: Residual activity of ITK at 0.1 uM by microplate scintillation counting
T3 sequence (whole entry): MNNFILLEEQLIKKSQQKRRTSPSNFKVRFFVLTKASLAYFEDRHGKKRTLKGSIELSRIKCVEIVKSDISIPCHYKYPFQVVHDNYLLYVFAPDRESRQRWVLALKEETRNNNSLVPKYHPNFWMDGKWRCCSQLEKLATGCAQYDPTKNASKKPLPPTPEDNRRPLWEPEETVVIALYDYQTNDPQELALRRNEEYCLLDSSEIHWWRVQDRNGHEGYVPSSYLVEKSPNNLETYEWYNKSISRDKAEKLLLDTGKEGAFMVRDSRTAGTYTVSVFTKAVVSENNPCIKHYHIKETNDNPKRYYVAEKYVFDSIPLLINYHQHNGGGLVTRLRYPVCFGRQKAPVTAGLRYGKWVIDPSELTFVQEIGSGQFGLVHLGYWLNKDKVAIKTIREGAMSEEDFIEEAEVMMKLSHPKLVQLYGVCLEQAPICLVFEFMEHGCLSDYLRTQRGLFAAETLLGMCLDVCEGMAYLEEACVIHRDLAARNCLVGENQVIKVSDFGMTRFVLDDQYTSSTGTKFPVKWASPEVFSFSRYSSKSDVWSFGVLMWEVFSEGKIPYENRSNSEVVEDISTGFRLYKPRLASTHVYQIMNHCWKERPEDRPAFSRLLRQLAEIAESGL

[11] = biological target: Serine/threonine-protein kinase pim-2 (Homo sapiens) (UniProt Q9P1W9); experiment: Residual activity of PIM2 at 10 uM by microplate scintillation counting
[12] = biological target: Tyrosine-protein kinase JAK2 (Homo sapiens) (UniProt O60674); experiment: Residual activity of JAK2 at 0.1 uM by microplate scintillation counting
[13] = biological target: Maternal embryonic leucine zipper kinase (Homo sapiens) (UniProt Q14680); experiment: Residual activity of MELK at 10 uM by microplate scintillation counting
[14] = biological target: Tyrosine-protein kinase Blk (Homo sapiens) (UniProt P51451); experiment: Residual activity of BLK at 0.1 uM by microplate scintillation counting
[15] = biological target: Mitogen-activated protein kinase 1 (Homo sapiens) (UniProt P28482); experiment: Residual activity of ERK2 at 1 uM by microplate scintillation counting
Sequence of Mitogen-activated protein kinase 1 (Homo sapiens) (P28482 whole entry): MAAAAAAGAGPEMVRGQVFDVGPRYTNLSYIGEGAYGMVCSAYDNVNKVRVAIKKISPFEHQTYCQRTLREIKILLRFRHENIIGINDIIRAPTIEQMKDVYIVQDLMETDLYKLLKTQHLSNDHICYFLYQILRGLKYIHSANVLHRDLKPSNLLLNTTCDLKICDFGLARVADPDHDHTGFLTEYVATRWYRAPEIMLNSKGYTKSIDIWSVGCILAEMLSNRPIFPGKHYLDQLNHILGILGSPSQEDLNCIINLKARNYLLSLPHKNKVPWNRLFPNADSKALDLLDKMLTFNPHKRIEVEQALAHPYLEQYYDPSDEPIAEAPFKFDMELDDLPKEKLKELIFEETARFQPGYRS

Sequence of Protein kinase C beta type (Homo sapiens) (P05771 2-671 limits assumed): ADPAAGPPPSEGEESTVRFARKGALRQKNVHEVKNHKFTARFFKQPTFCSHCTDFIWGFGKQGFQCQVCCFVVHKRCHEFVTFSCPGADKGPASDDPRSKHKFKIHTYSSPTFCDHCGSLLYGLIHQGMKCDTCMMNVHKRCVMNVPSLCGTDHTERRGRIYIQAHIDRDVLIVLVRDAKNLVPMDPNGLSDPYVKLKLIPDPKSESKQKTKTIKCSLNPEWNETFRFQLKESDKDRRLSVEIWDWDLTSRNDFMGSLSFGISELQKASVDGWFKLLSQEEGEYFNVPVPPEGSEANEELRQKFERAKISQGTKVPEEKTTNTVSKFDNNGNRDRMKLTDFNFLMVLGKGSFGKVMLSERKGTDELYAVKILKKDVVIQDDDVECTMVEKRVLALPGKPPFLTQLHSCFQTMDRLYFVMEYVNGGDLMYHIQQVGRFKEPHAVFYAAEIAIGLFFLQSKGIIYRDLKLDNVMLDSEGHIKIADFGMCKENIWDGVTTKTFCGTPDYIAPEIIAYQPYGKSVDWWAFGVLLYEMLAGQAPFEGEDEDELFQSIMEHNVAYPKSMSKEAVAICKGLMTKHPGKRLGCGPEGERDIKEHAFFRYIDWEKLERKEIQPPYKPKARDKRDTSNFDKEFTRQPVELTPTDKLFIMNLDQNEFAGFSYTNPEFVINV
Sequence of Serine/threonine-protein kinase pim-2 (Homo sapiens) (Q9P1W9 whole entry, looked up): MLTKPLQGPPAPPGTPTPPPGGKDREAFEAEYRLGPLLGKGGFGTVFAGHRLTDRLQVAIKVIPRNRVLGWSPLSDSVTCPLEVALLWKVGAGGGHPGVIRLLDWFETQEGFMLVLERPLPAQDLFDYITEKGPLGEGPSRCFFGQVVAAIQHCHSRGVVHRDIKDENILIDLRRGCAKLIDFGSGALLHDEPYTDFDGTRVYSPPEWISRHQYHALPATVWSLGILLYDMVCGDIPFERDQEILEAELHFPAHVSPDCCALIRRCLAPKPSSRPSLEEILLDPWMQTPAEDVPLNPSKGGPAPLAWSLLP
Sequence of Serine/threonine-protein kinase 24 (Homo sapiens) (Q9Y6E0 whole entry, looked up): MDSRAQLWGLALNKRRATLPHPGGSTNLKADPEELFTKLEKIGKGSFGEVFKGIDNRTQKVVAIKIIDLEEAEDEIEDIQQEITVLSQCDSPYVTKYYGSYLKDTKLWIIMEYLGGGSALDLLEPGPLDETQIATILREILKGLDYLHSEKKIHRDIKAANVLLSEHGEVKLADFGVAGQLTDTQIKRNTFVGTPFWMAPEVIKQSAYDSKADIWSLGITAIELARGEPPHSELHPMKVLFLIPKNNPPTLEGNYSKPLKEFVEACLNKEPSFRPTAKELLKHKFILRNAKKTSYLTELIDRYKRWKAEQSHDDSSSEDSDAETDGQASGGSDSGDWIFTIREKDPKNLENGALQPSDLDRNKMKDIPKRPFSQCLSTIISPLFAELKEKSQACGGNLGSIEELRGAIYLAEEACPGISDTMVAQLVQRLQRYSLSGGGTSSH
Sequence of Serine/threonine-protein kinase PAK 1 (Homo sapiens) (Q13153 whole entry): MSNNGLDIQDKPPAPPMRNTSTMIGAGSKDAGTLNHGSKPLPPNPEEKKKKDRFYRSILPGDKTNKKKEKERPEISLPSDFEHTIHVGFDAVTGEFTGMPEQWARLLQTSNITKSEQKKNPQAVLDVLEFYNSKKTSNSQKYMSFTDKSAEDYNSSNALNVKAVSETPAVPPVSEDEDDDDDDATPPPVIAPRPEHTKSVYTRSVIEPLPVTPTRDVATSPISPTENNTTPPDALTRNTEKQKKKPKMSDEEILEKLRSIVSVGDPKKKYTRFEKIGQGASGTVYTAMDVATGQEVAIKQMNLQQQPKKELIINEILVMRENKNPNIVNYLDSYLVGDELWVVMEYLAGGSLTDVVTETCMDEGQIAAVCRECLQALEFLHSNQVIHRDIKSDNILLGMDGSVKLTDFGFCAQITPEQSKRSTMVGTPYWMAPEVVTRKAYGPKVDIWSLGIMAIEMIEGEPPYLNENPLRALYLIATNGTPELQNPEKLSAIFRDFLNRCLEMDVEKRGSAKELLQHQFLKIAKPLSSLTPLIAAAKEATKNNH
Sequence of G protein-coupled receptor kinase 5 (Homo sapiens) (P34947 whole entry, looked up): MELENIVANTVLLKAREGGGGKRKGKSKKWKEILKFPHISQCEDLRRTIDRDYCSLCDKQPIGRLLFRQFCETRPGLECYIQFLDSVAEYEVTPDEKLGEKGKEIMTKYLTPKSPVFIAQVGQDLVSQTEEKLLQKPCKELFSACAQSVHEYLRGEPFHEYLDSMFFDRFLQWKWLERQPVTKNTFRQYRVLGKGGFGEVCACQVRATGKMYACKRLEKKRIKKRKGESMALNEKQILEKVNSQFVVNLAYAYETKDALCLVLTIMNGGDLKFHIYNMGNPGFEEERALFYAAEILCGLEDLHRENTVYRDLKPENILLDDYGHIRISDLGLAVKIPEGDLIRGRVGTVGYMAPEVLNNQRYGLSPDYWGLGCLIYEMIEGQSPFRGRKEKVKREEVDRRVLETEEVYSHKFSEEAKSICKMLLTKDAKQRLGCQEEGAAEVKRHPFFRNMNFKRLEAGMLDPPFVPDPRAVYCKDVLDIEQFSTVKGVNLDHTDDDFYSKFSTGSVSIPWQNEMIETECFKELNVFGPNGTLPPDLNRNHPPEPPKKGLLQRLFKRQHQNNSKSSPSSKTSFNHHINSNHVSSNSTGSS
Sequence of Myosin light chain kinase 2, skeletal/cardiac muscle (Homo sapiens) (Q9H1R3 whole entry): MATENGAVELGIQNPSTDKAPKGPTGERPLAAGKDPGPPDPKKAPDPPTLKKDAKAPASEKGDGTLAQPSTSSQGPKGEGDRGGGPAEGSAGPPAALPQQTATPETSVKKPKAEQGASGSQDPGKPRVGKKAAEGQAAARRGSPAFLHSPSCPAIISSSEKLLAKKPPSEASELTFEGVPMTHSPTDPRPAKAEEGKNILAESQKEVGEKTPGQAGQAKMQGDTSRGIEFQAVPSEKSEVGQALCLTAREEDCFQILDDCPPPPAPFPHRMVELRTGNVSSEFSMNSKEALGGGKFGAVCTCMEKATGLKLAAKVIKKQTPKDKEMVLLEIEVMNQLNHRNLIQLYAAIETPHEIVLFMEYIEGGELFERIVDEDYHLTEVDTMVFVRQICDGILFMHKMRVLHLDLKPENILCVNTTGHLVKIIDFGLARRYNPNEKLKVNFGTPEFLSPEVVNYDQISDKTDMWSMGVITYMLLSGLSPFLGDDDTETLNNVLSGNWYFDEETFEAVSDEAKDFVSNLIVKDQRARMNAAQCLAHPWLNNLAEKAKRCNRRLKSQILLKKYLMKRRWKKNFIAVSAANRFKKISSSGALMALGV
Sequence of Maternal embryonic leucine zipper kinase (Homo sapiens) (Q14680 whole entry, looked up): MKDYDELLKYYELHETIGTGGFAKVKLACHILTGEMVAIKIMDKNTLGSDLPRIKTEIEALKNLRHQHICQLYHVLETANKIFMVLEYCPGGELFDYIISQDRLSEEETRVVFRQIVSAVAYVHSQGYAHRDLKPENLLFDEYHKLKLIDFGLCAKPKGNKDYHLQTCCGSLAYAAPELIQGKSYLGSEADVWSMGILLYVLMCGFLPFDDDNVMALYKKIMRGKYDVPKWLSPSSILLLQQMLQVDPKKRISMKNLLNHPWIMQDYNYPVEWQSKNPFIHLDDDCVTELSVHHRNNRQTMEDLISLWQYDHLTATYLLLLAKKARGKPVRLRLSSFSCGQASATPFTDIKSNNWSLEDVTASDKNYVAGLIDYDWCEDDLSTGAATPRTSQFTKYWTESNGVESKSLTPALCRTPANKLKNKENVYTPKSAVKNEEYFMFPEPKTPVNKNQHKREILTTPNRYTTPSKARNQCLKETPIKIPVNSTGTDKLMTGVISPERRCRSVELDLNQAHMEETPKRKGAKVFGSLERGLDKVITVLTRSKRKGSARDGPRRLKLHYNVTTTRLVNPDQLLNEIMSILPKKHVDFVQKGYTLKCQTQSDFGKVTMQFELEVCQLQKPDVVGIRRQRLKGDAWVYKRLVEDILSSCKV
Sequence of Mitogen-activated protein kinase 14 (Homo sapiens) (Q16539 whole entry): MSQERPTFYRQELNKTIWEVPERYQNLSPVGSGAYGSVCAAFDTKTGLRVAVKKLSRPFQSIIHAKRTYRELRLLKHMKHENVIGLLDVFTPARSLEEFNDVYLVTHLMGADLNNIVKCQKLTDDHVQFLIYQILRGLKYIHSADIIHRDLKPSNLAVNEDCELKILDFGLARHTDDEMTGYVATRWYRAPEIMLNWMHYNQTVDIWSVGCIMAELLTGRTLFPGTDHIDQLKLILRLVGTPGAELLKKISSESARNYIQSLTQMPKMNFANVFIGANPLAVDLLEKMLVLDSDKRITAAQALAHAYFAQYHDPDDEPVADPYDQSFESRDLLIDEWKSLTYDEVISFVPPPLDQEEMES

Work on `COc1cc2c(Oc3ccc(-c4nc5ccccc5s4)cc3)ncnc2cc1OCCCN1CCN(C)CC1` yielded a residual activity [1] of 76%, a residual activity [2] of 81% and a residual activity [3] of 327%. It also gave a residual activity [4] of 84%, a residual activity [5] of 63% and a residual activity [6] of 100%. It also gave a residual activity [7] of 97%, a residual activity [8] of 118% and a residual activity [9] of 95%. The residual activity [10] was 99%, the residual activity [11] was 73% and the residual activity [12] was 90%. For the same compound, the residual activity [13] was 98%, the residual activity [14] was 90% and the residual activity [15] was 91%.
Work on `COc1cc2c(Oc3ccc(-c4nc5ccccc5s4)cc3)ncnc2cc1OCCCN1CCCC1` yielded a residual activity [1] of 81%, a residual activity [2] of 140% and a residual activity [3] of 325%. The residual activity [4] was 120%, the residual activity [5] was 72% and the residual activity [6] was 102%. The residual activity [7] was 99%, the residual activity [8] was 113% and the residual activity [9] was 94%. It also gave a residual activity [10] of 98%, a residual activity [11] of 113% and a residual activity [12] of 92%. The residual activity [13] was 85%, the residual activity [14] was 97% and the residual activity [15] was 82%.
For `COc1cc2c(Oc3ccc(-c4nc5ccccc5s4)cc3F)ncnc2cc1OCCCN1CCN(C)CC1`, the residual activity [1] was 84%, the residual activity [2] was 99% and the residual activity [3] was 320%. For the same compound, the residual activity [4] was 17%, the residual activity [5] was 80% and the residual activity [6] was 109%. For the same compound, the residual activity [7] was 93%, the residual activity [8] was 122% and the residual activity [9] was 90%. For the same compound, the residual activity [10] was 107%, the residual activity [11] was 85% and the residual activity [12] was 102%. For the same compound, the residual activity [13] was 77%, the residual activity [14] was 89% and the residual activity [15] was 98%.
